In patent US10323266B2, “Antimicrobial susceptibility testing device, antimicrobial susceptibility testing kit, and antimicrobial susceptibility testing method” (Hitachi, Ltd., priority 2015, dated 2019):

Tested on: Escherichia coli (ATCC25922 strain)
Experiment: antimicrobial susceptibility test by an ATP method (ATP luminescence), E. coli
Format: cell-based
Details: for RLU value as compared with that at ampicillin 0 μg/mL: plateau after 2 hours
Excerpt: In the Example, the amount of luminescence is expressed by the integration of the 60-sec photon count, and the unit is the amount of luminescence (a.u.). Since the amount of luminescence and the amount of ATP are in a proportional relationship, the increase in the amount of luminescence and the increase in the amount of ATP are to be expressed with the same implications.
Benzalkonium chloride was used as an extraction liquid, and Lucifer HS set (Kikkoman) was used as a luminescence reagent.
First, H. influenzae was cultured one night on a chocolate agar medium under a carbon dioxide gas atmosphere of 5 to 10%, and on the next day, the colony was suspended in a Mueller-Hinton (hereinafter referred to as MH) medium to produce a bacterial suspension that was prepared to 0.5 McFarland. Next, in a plate in which 50 μL each of an MH medium with the antibody of the two-fold concentration of the final concentration was previously dispensed, 50 μL each of a bacterial suspension diluted 500-fold with the MH medium was dispensed to provide an AST panel.
The first plate 21 and the second plate 22 were joined via the joint portion 23. The temperature of the ATP examination culture plate 12 was kept at 37° C. by the heater 11 and after a certain period of time, 10 μL of the bacterial culture solution of H. influenzae was dispensed from the culture vessel in the first plate 21 into the reaction vessel in the second plate 22 in which the gas atmosphere was previously prepared to 5 to 10% carbon dioxide. Subsequently, 10 μL of the extraction liquid was dispensed from the extraction liquid holding part 43 into the reaction vessel, and then 50 μL of the luminescence reagent was dispensed from the luminescence reagent holding part 46 into the reaction vessel.
After dispensing the luminescence reagent, the amount of luminescence in the reaction vessel was detected by the optical detector 13. In the optical detector 13, photo-counting was performed for 1 minute, and the detected amount of luminescence RLU (relative light unit) was used as a measure of the amount of ATP.
Example 2 was conducted in the same manner as in Example 1, except that Escherichia coli (ATCC25922 strain, hereinunder, E. coli) was used as bacterial cells, ampicillin was used as an antibody, and the gas atmosphere in the culture solution holding part 47 and the reaction vessel 44 of the ATP examination culture plate 21 was an air atmosphere. The antibody (ampicillin) concentration was 0, 2, 4, and 8 μg/mL. […] When the ampicillin concentration was 0 μg/mL, RLU increased in an exponential manner from the start of the culture until 4 hours, and thereafter ran at a constant value. […] On the other hand, when the ampicillin concentration was 4 μg/mL and 8 μg/mL, RLU increased from the start of the culture until 2 hours and thereafter ran at a constant value. The RLU value was as low as about 1/20 as compared with that at an ampicillin concentration of 0 μg/mL, and it can be seen that the growth of E. coli was suppressed by the action of ampicillin.

`CC1(C)S[C@@H]2[C@H](NC(=O)[C@H](N)c3ccccc3)C(=O)N2[C@H]1C(=O)O` [ampicillin] was tested, and the “susceptibility determination of E. coli” value (ampicillin 2 μg/mL) was “resistant”, the “RLU time course compared with ampicillin 0 μg/mL” value (ampicillin 2 μg/mL, air atmosphere, FIG. 10, 0 μg/mL: exponential increase until 4 hours, then constant) was “a similar trend was shown” and the “susceptibility determination of E. coli” value (ampicillin 4 μg/mL) was “has sensitivity”. For the same compound, the “RLU value as compared with that at ampicillin 0 μg/mL” value (ampicillin 4 μg/mL, air atmosphere, FIG. 10) was “about 1/20”, the “susceptibility determination of E. coli” value (ampicillin 8 μg/mL) was “has sensitivity” and the “RLU value as compared with that at ampicillin 0 μg/mL” value (ampicillin 8 μg/mL, air atmosphere, FIG. 10) was “about 1/20”. The “concentration at which E. coli has sensitivity” value (tested 0, 2, 4 and 8 μg/mL, ATP luminescence) was ≥ 4 µg/mL.
